These results are taken from patent US20080004272A1, “Compositions and methods for modulating gated ion channels” (PainCeptor Pharma Corporation, priority 2006, published 2008).

Like-named read-outs stand apart in the source and are kept apart here.

Assay [1] deals with T1, ASIC1a (Homo sapiens, UniProt P78348).
T1 sequence (P78348 1-528): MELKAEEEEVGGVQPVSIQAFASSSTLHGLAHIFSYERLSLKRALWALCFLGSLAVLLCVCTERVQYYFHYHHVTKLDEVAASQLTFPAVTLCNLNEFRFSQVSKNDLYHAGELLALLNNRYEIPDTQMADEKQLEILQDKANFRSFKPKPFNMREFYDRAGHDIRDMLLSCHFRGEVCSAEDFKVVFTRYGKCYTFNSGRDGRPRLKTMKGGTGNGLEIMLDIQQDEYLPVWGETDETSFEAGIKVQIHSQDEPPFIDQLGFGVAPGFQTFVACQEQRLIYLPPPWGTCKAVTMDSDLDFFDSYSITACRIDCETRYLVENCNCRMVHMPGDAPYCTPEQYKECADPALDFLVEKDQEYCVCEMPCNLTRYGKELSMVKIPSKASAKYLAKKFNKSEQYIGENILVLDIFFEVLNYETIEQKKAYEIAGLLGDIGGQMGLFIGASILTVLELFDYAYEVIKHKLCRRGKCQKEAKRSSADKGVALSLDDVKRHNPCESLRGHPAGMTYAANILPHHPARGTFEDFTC
Briefly: Calcium imaging of MES-induced calcium response (FLIPR). The format is cell-based. More on the design: host or cells: HEK293.

Assay [2] relates to formalin-induced pain. Description: Formalin test, model of acute tonic pain. To be noted: rat; for Effect on pain intensity (flinching or licking behaviors): s.c. 30 min prior to formalin injection; for ED50: sc, s.c. 30 min prior to formalin, licking and biting episodes in phase IIa, read-out: ED50, effective dose where the pain score is reduced by half. The format is in vivo. The method, then: Male Sprague-Dawley rats are housed together in groups of three animals under standard conditions with unrestricted access to food and water. All experiments are conducted according to the ethical guidelines for investigations of experimental pain in conscious animals (Zimmerman, 1983)
Assessment of formalin-induced flinching behavior in normal, uninjured rats (body weight 150-180 g) is made with the use of an Automated Nociception Analyser (University of California, San Diego, USA). Briefly, this involves placing a small C-shaped metal band (10 mm wide×27 mm long) on the hindpaw of the rat to be tested. The rats (four rats are included in each testing session) are then placed in a cylindrical plexiglass observation chamber (diameter 30.5 cm and height 15 cm) for 20 min for adaptation purposes prior to being administered drug or vehicle according to the experimental paradigm being followed. After adaptation, individual rats are then gently restrained and formalin (5% in saline, 50 μl, s.c.) is injected into the plantar surface of the hindpaw using a 27G needle. Rats are then returned to their separate observation chambers, each of which are in turn situated upon an enclosed detection device consisting of two electromagnetic coils designed to produce an electromagnetic field in which movement of the metal band could be detected. […] A sampling interval of 1 min is used and on the basis of the resulting response patterns 5 phases of nociceptive behaviour are identified and scored: first phase (P1; 0-5 min), interphase (Int; 6-15 min), second phase (P2; […]), phase 2A (P2A; 16-40 min) and phase 2B (P2B; 41-60 min).
Nociceptive behavior is also determined manually every 5 min by measuring the amount of time spent in each of four behavioral categories: 0, treatment of the injected hindpaw is indistinguishable from that of the contralateral paw; 1, the injected paw has little or no weight placed on it; 2, the injected paw is elevated and is not in contact with any surface; 3, the injected paw is licked, bitten, or shaken. A weighted nociceptive score, ranging from 0 to 3 is calculated by multiplying the time spent in each category by the category weight, summing these products, and dividing by the total time for each 5 min block of time. […] On the basis of the resulting response patterns, […] of nociceptive behavior are identified and scored: first phase (P1; 0-5 min), interphase (Int; 6-15 min), second phase (P2; […]), phase 2A (P2A; 16-40 min) and phase 2B (P2B; 41-60 min).
Statistical analysis is performed using the Prism™ 4.01 software package (GraphPad, San Diego, Calif., USA). The difference in response levels between treatment groups and control vehicle group is analyzed using an ANOVA followed by Bonferroni's method for post-hoc pair-wise comparisons. […]

Regarding `CN1CCc2c(-c3ccccc3)cc(C#N)c(N)c2C1` [Compound 203, 8-Amino-2-methyl-5-phenyl-1,2,3,4-tetrahydro-isoquinoline-7-carbonitrile], the IC50 in assay [1] was less than 10 µM. For the same compound, in assay [2], the “Effect on pain intensity (flinching or licking behaviors)” value was “dose-dependent reduction of the pain intensity” and the ED50 was determined as 6 mg/kg.
Take `COc1ccc(F)cc1-c1cc(C#N)c(N)c2c1CCN(C)C2` [Compound 206, 8-Amino-5-(5-fluoro-2-methoxy-phenyl)-2-methyl-1,2,3,4-tetrahydro-isoquinoline-7-carbonitrile]: the IC50 in assay [1] (ASIC1a expressing HEK293 cells, MES-induced calcium response, read-out: IC50 (FLIPR)) lay in the range of 20 to 40 µM. For the same compound, in assay [2], the “Effect on pain intensity (flinching or licking behaviors)” value is “dose-dependent reduction of the pain intensity” and the ED50 is 50 mg/kg.
